According to patent US12241094B2, “Phenazine degrading agents and related compositions, methods and systems for interfering with viability of bacteria” (priority 2016, dated 2025):
Entries after “also recorded” stand apart in the source; their conditions may differ. Marks after values point to notes of the source that are not given here.

B1: Y156F (protein)
chain: MTGKTKPAIIGGVAITALAAAGLGVWLFTDGRGGRSTTEPVTMTLDVKNDQVAKHDFGKPGMDVGDMDIFSDILSVDGKQVGYDGGACFFTNVTPDNPMTYCELTIHLDAGEIFARSLTPHTLAPFTMAITGGTGEYANSKGELTVSGVATPDEKFELKLTK

How the values were obtained:
PA14 [1] = assay: Redox cycles over 7 days and support of survival (Table 1); assay type: cell-based, P. aeruginosa
PA14 [2] = assay: Reduction of redox-active compounds by PA14 (Table 1); assay type: cell-based, P. aeruginosa
[3] = oxidized form, values from references a, c, d; cited from earlier work
PodA30-162 = assay: Alternative substrate utilization by PodA; assay type: biochemical, Mycobacterium fortuitum; settings: for demethylation of alternative substrate by PodA30-162 (HPLC end point): 50 μg mL^−1 PodA30-162, 4 hours, dark
Description: Chemical formula diagrams of methylated substrates and their expected demethylated products, based on the prediction model, are shown, wherein arrows indicate demethylation catalyzed by PodA. Mixtures were analyzed by HPLC (right graphs) after 4 hours to determine the resulting products of each reaction. Standards for each product were run to determine retention times (indicated for each molecule with arrows). Only N-methylated phenazines were altered by incubation with PodA30-162. […] PMS, phenazine methosulfate.
Enzyme activity and analysis. PYO demethylation by PodA30-162 was first determined by HPLC analysis as described previously (6, 9). To detect formaldehyde evolution, 150 nM protein was mixed with 50 μM PYO in 1 mL of 20 mM Tris pH 7.6 amended with 200 μL Nash reagent (2 M ammonium acetate, 50 mM acetic acid, 20 mM acetylacetone) and incubated at 55° C. until the reaction proceeded to completion (37, 38). The products were determined by HPLC using the same method as used for phenazine quantification. To monitor the formation of reduced phenazine, protein and 50 μM PYO were placed into an anaerobic chamber (Coy Laboratory Products) under an atmosphere of H2/N2 (5:95) and left overnight before allowing the reaction to proceed. […] A BioTek Synergy 4 microplate reader (BioTek) plate reader in the anaerobic chamber was used to measure the emission spectrum of products with excitation at 250 nm. […] Reaction progress was monitored by measuring absorbance at 313 nm (40) every 0.5 seconds for 5 minutes. […] Kinetic parameters were calculated in Microsoft Excel using the Solver plug-in and fitting data to ideal Michaelis-Menton plots with non-linear regression of experimental data (41). For measurements of the rate of methoxy-PMS demethylation, 300 nM protein was used and methoxy-PMS loss from the reaction mixture was monitored at 500 nm wavelength. […] The stimulatory effects of flavin or 2-oxoglutarate addition was determined by adding 25 μM flavin or 2-oxoglutarate to 20 μM PYO and 15 nM PodA30-162 and monitoring the reaction. […]

[4] = system: P. aeruginosa PA14 biofilms; assay: Biofilm formation, surface coverage (chambered coverglass, DAPI); assay type: cell-based; settings: 5 hours; PodA30-162 2 μg mL^−1, DNase 20 μg mL^−1; vs. PodA-inactive
Description: Biofilm experiments. For all experiments involving inactivated PodA, either the E154A mutant or PodA30-162 that was subjected to a 1 hour treatment at 98° C. was used. To test the ability of PodA30-162 to degrade PYO in the presence of DNA, genomic DNA (gDNA) from P. aeruginosa PA14 was used in modified versions of previously described assays (59). For experiments using DNA pellets, 0.5 mg of gDNA was pelleted in the presence of 300 mM sodium acetate, pH 5.2 and 70% ethanol. Pellets were washed with 70% ethanol and dried. 200 μL of 800 μM PYO was added to the gDNA pellet without mixing and left to sit at room temperature for 6 hours to allow for diffusion of PYO into the gDNA pellet. The pellet was washed once with 70% EtOH, and submerged in a solution containing 10 mM Tris, pH 7.0 and 40% isopropanol. The pellet remained blue, consistent with an association of PYO with DNA. PodA30-162 was added to the isopropanol solution to a final concentration of 2 μg mL^−1 and left to sit for 3 hours to allow for the reaction to proceed. Tubes were imaged before and after PodA30-162 treatment. For experiments using solubilized gDNA, a 400 μg mL^−1 solution of gDNA was mixed with PYO and allowed to equilibrate for 6 hours. The PYO gDNA mixture was amended with 1 μg mL^−1 PodA30-162 and loss of PYO was monitored on a BioTek Synergy 4 microplate reader (BioTek) plate reader at 690 nm. Standards were included to quantify PYO loss over time. To assess biofilm formation in the presence of PodA30-162, biofilms were grown in Nunc Lab-Tek chambered coverglass slides (8-well, 0.8 cm^2 area, supplier #155411) using a modified protocol (22). PA14 was inoculated into succinate minimal medium and grown overnight to stationary phase. Cells were resuspended in fresh medium and diluted to a starting OD500 of 0.5 in succinate minimal medium. PodA30-162 (2 μg mL^−1, final concentration) or DNase (20 μg mL^−1) (22) was added and 250 μL was added to each well of the 8-well chambered coverglass. Cultures were grown for 5 hours at 37° C. and 100 rpm (Innova 44 shaking incubator, New Brunswick) in a humidified chamber. After incubation, liquid was removed from each well by drawing with a pipet tip placed in the corner of each well and chambers were washed twice with 400 μL of biofilm wash (Tris buffer, pH 7.6 and 100 mM NaCl) to remove planktonic and loosely bound cells. Attached biomass was stained by adding 450 μL biofilm wash containing 10 μg mL^−1 DAPI (4′,6-diamidino-2-phenylindole) (Santa Cruz Biotechnology). Surface associated biomass was imaged on a Leica TCS SPE confocal microscope with a ACS APO 40×/1.15 oil immersion objective. A 405 nm solid-state laser was used for excitation, and data was collected from 420-500 nm. […]

[5] = PYO demethylation by purified PodA30-162 and mutants (spectrophotometric/HPLC); assay type: biochemical; settings: PYO demethylation; 60 nM mutant protein
Description: Enzyme activity and analysis. PYO demethylation by PodA30-162 was first determined by HPLC analysis as described previously (6, 9). To detect formaldehyde evolution, 150 nM protein was mixed with 50 μM PYO in 1 mL of 20 mM Tris pH 7.6 amended with 200 μL Nash reagent (2 M ammonium acetate, 50 mM acetic acid, 20 mM acetylacetone) and incubated at 55° C. until the reaction proceeded to completion (37, 38). The products were determined by HPLC using the same method as used for phenazine quantification. To monitor the formation of reduced phenazine, protein and 50 μM PYO were placed into an anaerobic chamber (Coy Laboratory Products) under an atmosphere of H2/N2 (5:95) and left overnight before allowing the reaction to proceed. To generate reduced PYO and 1-OH-PHZ, 50 μM were mixed with 1 mM sodium dithionite. The formation of reduced phenazine products was assayed visually under UV illumination (39). A BioTek Synergy 4 microplate reader (BioTek) plate reader in the anaerobic chamber was used to measure the emission spectrum of products with excitation at 250 nm. To determine the activity of PodA30-162 in the presence of glycerol, salts, or varying pH, 30 nM protein was suspended in 500 μL buffer, 40 μM PYO was mixed with 2× solution containing the buffer of interest (500 μL), and solutions were preheated to 30 C. For pH range measurements, the following buffers were used (40 mM, adjusted with KOH): acetic acid, pH 4.9; MES, pH 5.4 and 5.7; HEPES, pH 6.1; Tris, pH 6.9 and 7.5; Bicine, pH 7.8, 8.3 and 8.7; CHES, pH 9.4. To measure reaction rates, cuvettes containing the 2×PYO solution were placed in a Evolution 260Bio UV-Vis spectrophotometer (Thermo Scientific) and 500 μL of 30 nM protein was added at time 0 (15 nM protein and 20 μM PYO, final concentration). Reaction progress was monitored by measuring absorbance at 313 nm (40) every 0.5 seconds for 5 minutes. To measure kinetic parameters (kcat, Km) 15 nM protein was used in a reaction buffer of Bicine, pH 7.8; reactions were monitored as before with measurements every 0.2 seconds. The rate from the first 10 seconds of the reaction was used for the determination of kinetic parameters. Kinetic parameters were calculated in Microsoft Excel using the Solver plug-in and fitting data to ideal Michaelis-Menton plots with non-linear regression of experimental data (41). For measurements of the rate of methoxy-PMS demethylation, 300 nM protein was used and methoxy-PMS loss from the reaction mixture was monitored at 500 nm wavelength. Methoxy-PMS was purchased from TCI America. For assays with mutant proteins, 60 nM protein was used. The stimulatory effects of flavin or 2-oxoglutarate addition was determined by adding 25 μM flavin or 2-oxoglutarate to 20 μM PYO and 15 nM PodA30-162 and monitoring the reaction. Experiments testing alternative substrates were carried out using 1 mL reaction volumes containing 20 mM Tris (pH 7.6) and 50 μg mL^−1 PodA30-162. Alternative substrates tested were 10-methylphenothiazine (AlfaAesar), phenazine methosulfate (AlfaAesar), methoxyphenazine methosulfate (TCI America), and 4-keto-N-ethylphenazine. 4-keto-N-ethylphenazine was synthesized from phenazine ethosulfate (Sigma-Aldrich) by incubating under fluorescent light overnight followed by purification by HPLC as described (6, 42). As phenazine methosulfate is light sensitive and spontaneously converts to PYO in the presence of light, all reactions were carried out in the dark, and activity was assessed by end point analysis by HPLC after 4 hours (9).

Row | Molecule | # of Redox cycles over 7 days (PA14 [1]) | Support survival? (PA14 [1]) | Reduction by PA14? (PA14 [2]) | E^0, (vs. NHE) [3] | other results
1 | O=C1c2ccc(S(=O)(=O)O)cc2C(=O)c2ccc(S(=O)(=O)O)cc21 [2,6-AQDS] | No cycle | No | Yes (very slowly) | −184^d mV | 
2 | CCn1c2cccc(=O)c-2nc2ccccc21 [4-keto-N-ethylphenazine] |  |  |  |  | demethylation of alternative substrate by PodA30-162 (HPLC end point) (PodA30-162): not demethylated or de-ethylated
3 | CN1c2ccccc2Sc2ccccc21 [10-methylphenothiazine] |  |  |  |  | demethylation of alternative substrate by PodA30-162 (HPLC end point) (PodA30-162): not demethylated or de-ethylated
4 | O=C(O)c1cccc2nc3ccccc3nc12 [PCA, Phenazine-1-carboxylate] | 22 | Yes | Yes | −114^a mV | 
5 | C[n+]1ccc(-c2cc[n+](C)cc2)cc1 [Paraquat] | No cycle | No | No | −446^e mV | 
6 | COS(=O)(=O)[O-].COc1cccc2c1nc1ccccc1[n+]2C [methoxy-PMS, methoxyphenazine methosulfate] |  |  |  |  | methoxy-PMS demethylation over time (PodA30-162; 300 nM protein, 500 nm): initial burst of activity followed by a slower steady state; also recorded: reaction rate slows significantly after an initial burst
7 | DNase [reference compound] |  |  |  |  | biofilm surface coverage [4]: inhibited biofilms; also recorded: decreased surface coverage
8 | B1 |  |  |  |  | wild type activity [5]: ~25%
